Measurements taken from patent publication EP0073865B1, “Derivatives of iodothyronine compounds and their use in an assay for the free iodothyronine compounds” (AMERSHAM INTERNATIONAL plc, priority 1981, dated 1983).

Key:
[1] = Stability of the tracer compound in water / assay buffer; type: physicochemical; details: on dilution into the assay buffer / contact with water
TBG = target: T1, TBG (Homo sapiens, UniProt P05543); assay: Displacement of 125I-T4 tracer from TBG:anti-TBG binding reagent (binding strength relative to T4); details: for binding to TBG (in words): I-125 labelled tracer
T1 construct: from tissue; host or cells: human serum (resin stripped)
T1 sequence (P05543 21-415): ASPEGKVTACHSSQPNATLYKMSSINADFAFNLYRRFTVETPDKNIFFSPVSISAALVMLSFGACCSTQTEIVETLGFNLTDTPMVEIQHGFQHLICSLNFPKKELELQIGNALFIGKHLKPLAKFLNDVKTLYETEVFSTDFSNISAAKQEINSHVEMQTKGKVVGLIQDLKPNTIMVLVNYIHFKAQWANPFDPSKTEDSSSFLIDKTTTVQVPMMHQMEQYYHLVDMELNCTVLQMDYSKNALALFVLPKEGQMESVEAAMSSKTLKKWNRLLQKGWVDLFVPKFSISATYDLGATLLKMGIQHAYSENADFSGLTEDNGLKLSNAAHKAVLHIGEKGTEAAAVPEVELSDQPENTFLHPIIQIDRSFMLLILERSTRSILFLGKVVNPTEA
Method: (§1) Method for estimation of T4.EDTA binding strength to TBG and prealbumin relative to that of T4
(§2) Pre-precipitated antiserum (binding reagent) to either TBG or prealbumin is incubated with a serum source of TBG or prealbumin, so that the T4 binding protein is isolated on the binding reagent. Tracer ^125I-T4 is added to the resulting complex and is thus purified. The displacement of the tracer ^125I―T4, by varying concentrations of T4 and T4.EDTA, from the TBG or prealbumin, can then be studied. The results can be used to estimate the differences in binding affinity between T4 and T4.EDTA for the two T4 binding proteins.
• 2.1 Preparation of ^125I-T4:TBG:anti-TBG binding reagent • 2.1.1. Binding reagent preparation • 15% Donkey anti-sheep) in phosphate • 2% TBG Antiserum) buffer + 0.05% BSA
Equal quantities of the above solutions are mixed and rotated overnight at 4° so that the final concentrations in the binding reagent are 7.5% donkey anti-sheep, and 1% TBG antiserum. Centrifugation at 900 rpm, decantation and resuspension in fresh buffer are carried out twice to wash the reagent.
1 ml of resin stripped human serum and 20 ml of the above binding reagents are mixed for 1 hour at room temperature. Centrifugation, decantation and resuspension in fresh buffer (phosphate + 0.05% BSA) are carried out twice.
Typically 10 ml ofTBG:anti-TBG binding reagents, 28 ml of phosphate buffer + 0.05% BSA, and 2 ml of ^125I―T4 tracer solution (0.1 µCi high specific activity T4 per ml in phosphate buffer + 0.05% BSA) are mixed for 1 hour at room temperature. […]
(§3) Thus the percentage bound of the tracer at different T4 and T4.EDTA concentrations, can be determined in the two systems.
(§4) Tracer percentage bound is plotted against T4 and T4.EDTA concentrations, and from these curves an estimate of the non-specific binding can be made. The data can then be re-calculated, using this blank correction, plotted, and the T4 and T4.EDTA concentrations corresponding to a range of tracer percentage bound values can be read off the curve. […]

TBPA = target: T2, TBPA (Homo sapiens, UniProt P02766); assay: Displacement of 125I-T4 tracer from TBPA:anti-TBPA binding reagent (binding strength relative to T4); details: binding to TBPA (prealbumin), displacement of 125I-T4, 37°C
T2 construct: from tissue; host or cells: normal serum
Method: as §1, §2
This is prepared as for the anti-TBG binding reagent except that equal volumes of 30% donkey anti-rabbit second antibody and 4% TBPA antiserum solutions were mixed to give final concentrations of 15% donkey anti-rabbit, and 2% anti-TBPA. […]
as §3, §4

T4 antiserum = assay: Affinity constant with respect to T4 antiserum, relative to T4; type: binding
[2] = tested on: Antisera (having low T4 cross reactivity); assay: Binding to antisera having low T4 cross reactivity, compared with T3

Row | binding to TBG (in words) (TBG) | affinity constant as % of the affinity constant of T4 (TBPA) | affinity constant as % of the affinity constant of T4 (TBG; binding to TBG, displacement of 125I-T4, 37°C) | SMILES | stability in water [1] | affinity constant with respect to T4 antiserum as % of that of T4 (T4 antiserum) | binding to Antisera compared with T3 [2]
1 | binds appreciably to TBG |  |  | COC(=O)[C@H](Cc1cc(I)c(Oc2cc(I)c(O)c(I)c2)c(I)c1)NC(C)=O [N-Acetyl-thyroxine-methyl ester, N-acetyl-thyroxine-methyl ester, reference compound] | only gives useful assay results within hours of dilution into the assay buffer |  | 
2 | no significant tendency to bind to TBG | 2.7% | 3.5% | O=C(O)CN(CCN(CC(=O)O)CC(=O)NC(Cc1cc(I)c(Oc2cc(I)c(O)c(I)c2)c(I)c1)C(=O)O)CC(=O)O (centres unmarked) [T4.EDTA, 1-{3',5'-di-iodo-4' (3",5"-di-iodo-4"-Hydroxyphenoxy)phenyl} 2-carboxy-6,9-dicarboxymethyl-4-oxo-3,6,9,-triazaundecan-11-oic acid] | stable in water | 90.4% | 
3 |  |  |  | O=C(O)CN(CCN(CC(=O)O)CC(=O)NC(Cc1cc(I)c(Oc2ccc(O)c(I)c2)c(I)c1)C(=O)O)CC(=O)O (centres unmarked) [T3.EDTA, 2-carboxy-6,9-dicarboxymethyl-1 3',5' di-iodo-4' (3"-iodo-4"-hydroxy)phenoxy phenyl 4-oxo-3,6,9-triazaundecan-11-oic acid.] |  |  | equal, or better, binding than T3 itself
